Values belong to the molecule of their own block, whether it stands above or below them.
Assays:
[1] = tested on: human-derived prostate cancer (DU-145); assay: Nude mouse subcutaneous transplant model of human-derived prostate cancer (DU-145); format: in vivo, nude mice
Protocol: It was attempted to evaluate the anticancer efficacy of the compound CG165 of the present disclosure by oral administration using nude mouse subcutaneous transplant models of human-derived prostate cancer (DU-145).
Specifically. Athymic-NCr NCr-nu specific pathogen-free (SPF) 5-week-old nude mice supplied by KOATECH (Pyeongtaek-si, Gyeonggi-do) were used as animals. The cancer cell concentration was adjusted to 3×10^7 cells/mL, and 0.3 mL of cell culture per mouse was injected subcutaneously into the axillary area between the right shoulder and chest wall. Subsequently, CG165 was prepared at the corresponding concentrations by adding DMAC 10%+Tween80 10%+20% HPBCD 80% step by step, and was administered orally at 0.2 mL per 20 g of mouse, which was repeated a total of 23 times for 30 days. At 30 days after starting drug administration, the DU-145 tumor was excised and its weight was measured.
Next, it was attempted to evaluate the anticancer efficacy of the compound CG126 of the present disclosure by intraperitoneal administration using nude mouse subcutaneous transplant models of human-derived prostate cancer (DU-145) in the same manner as above.

STAT3 activity (p-STAT3) [2] = biological target: T1, STAT3 activity (p-STAT3) (Homo sapiens, UniProt P40763); assay: STAT3 phosphorylation inhibitory effect in cancer cell line by Western blot (Table 2); format: cell-based; set-up: endogenous in cells; host or cells: unnamed 'rectal cancer cell' line; details: rectal cancer cell line, read-out: Concentration at which STAT3 activity (p-STAT3) is inhibited by 50% (μM; IC50)
Protocol: (§1) Prostate cancer cell line DU-145, breast cancer cell MDA-MB 468, lung cancer cell HCC827, natural killer cells (NKL), or bone marrow-derived macrophages (BMDM) (4×10^5 cells), which are immune cells, were plated in a 6-well plate. After 24 hours, the cells were each treated with 0.1% DMSO, HCA, EA, and the compounds prepared in Synthesis Examples 1 to 8 according to concentration and time, washed with PBS, and recovered using RIPA buffer. […] of protein quantified using the Bio-Rad protein assay kit (Bio-Rad, Hercules, California, USA) was subjected to 8% SDS-PAGE electrophoresis and transferred to a PVDF membrane (EMD Millipore, Billerica, MA, USA). After blocking the membrane with TBST containing 5% skim milk, the experiment was performed using primary and secondary antibodies. The primary antibodies used were p-STAT3 (Y705) (Cell Signaling), STAT3 (Cell Signaling), Cyclin D1 (Santa Cruz), Cyclin A (Santa Cruz), Mcl-1 (Santa Cruz), Survivin (Cell Signaling), Bcl-XL (Santa Cruz), and PARP (Cell Signaling) GAPDH (Santa Cruz), and the secondary antibodies used were HRP-conjugated goat anti-rabbit and anti-mouse IgG (Jackson ImmunoResearch Laboratories, West Grove, PA, USA). The antibodies used were each washed three times with TBST, and bands were detected using Luminata Forte Western HRP substrate (EMD Millipore) by LAS 4000 mini (GE Healthcare Life Sciences). Subsequently, correction using GAPDH was performed using the MultiGauge program (Fuji Photo Film, Tokyo, Japan).
The STAT3 phosphorylation inhibitory effect of the cinnamamide derivatives of Chemical Formula 1 prepared in Synthesis Examples 1 to 8 in cancer cell lines was confirmed by Western blot.
Specifically, the STAT3 phosphorylation inhibitory effect in rectal cancer cell was confirmed line as an example of representative carcinoma.

[3] = biological target: T2, STAT3 phosphorylation (p-STAT3) (Mus musculus, UniProt P42227); assay: STAT3 phosphorylation inhibition in IL-10-treated bone marrow-derived macrophages (BMDM) by Western blot; format: cell-based, C57BL/6 mice; details: for inhibition of phosphorylation of STAT3, dependence on concentration: 1 hour pre-treatment, then IL-10 for 15 minutes
T2 construct: the bone marrow-derived macrophages isolated from mouse bone marrow; endogenous in cells; host or cells: primary bone marrow-derived macrophages from C57BL/6 mice
Protocol: as §1, with “Japan). […]” for “Japan).”
Subsequently, in order to confirm the function of CG155 and CG165 in inhibiting STAT3 activation in the bone marrow-derived macrophages isolated from mouse bone marrow, the bone marrow-derived macrophages were each pre-treated with DMSO, CG155 (5 μM, 10 μM), and CG165 (2 μM, 5 μM) for 1 hour. After removing the culture medium, the bone marrow-derived macrophages were treated with interleukin-10 (IL-10), a type of cytokine that can activate STAT3, for 15 minutes, and the function of CG155 and CG165 on inhibiting STAT3 activation was measured by Western blot using p-STAT3 antibody.

[4] = biological target: T3, STAT3 phosphorylation (p-STAT3) (Homo sapiens, UniProt P40763); assay: STAT3 phosphorylation inhibition in natural killer cells (NKL) by Western blot; format: cell-based; details: 2, 5, 10 μM
T3 construct: endogenous in cells; host or cells: NKL natural killer cells
Protocol: as §1, with “The primary antibodies used were p-STAT3 (Y705) (Cell Signaling), STAT3 (Cell Signaling), Cyclin D1 (Santa Cruz), Cyclin A (Santa Cruz), Mcl-1 (Santa Cruz), Survivin (Cell Signaling), Bcl-XL (Santa Cruz), and PARP (Cell Signaling) GAPDH (Santa Cruz), and the secondary antibodies used were HRP-conjugated goat anti-rabbit and anti-mouse IgG (Jackson ImmunoResearch Laboratories, West Grove, PA, USA).” left out, “Subsequently, correction using GAPDH was performed using the MultiGauge program (Fuji Photo Film, Tokyo, Japan).” left out
Specifically, NKL (4×10^5 cells) were plated in 6-well plate and each treated with 2 μM, 5 μM, and 10 μM of CG155 or CG165, and then the degree of STAT3 phosphorylation was measured by Western blot using p-STAT3 antibody.

[5] = tested on: prostate cancer cell line DU-145; assay: Cell proliferation assay (WST-1) in prostate cancer cell line DU-145; format: cell-based, human; details: 24 or 48 hours
Protocol: In Example 1, it was confirmed that STAT3 activity (p-STAT3) was inhibited in cancer cells when treated with the cinnamamide derivatives of Chemical Formula 1 prepared in Synthesis Examples 1 to 8. In order to confirm the effect of inhibiting STAT3 activity on inhibition of cancer cell growth, cell proliferation assay was performed using the prostate cancer cell line, a representative carcinoma.
Specifically, the prostate cancer cell line DU-145 (0.8×10^4 cells) was plated in a 96-well plate. After 24 hours, DMSO (control) and CG-165 were treated for 24 or 48 hours according to concentration, and then treated with 10 ul of WST-1 reagent (Dojindo Laboratories, Kumamoto, Japan). After treatment for about 1 hour, cell viability was calculated using the absorbance measured at 450 nm with a microplate reader (Multiskan GO system, Thermo Fisher Scientific, Rockford, IL, USA).

[6] = tested on: MCF10A, human breast epithelial cells; assay: Cell viability (WST-1) in normal cells MCF10A; format: cell-based; details: 10 μM, 48 hours
[7] = tested on: STAT3 target proteins (cyclin A, Mcl-1, survivin), caspase 3, PARP; assay: Expression of STAT3 target proteins and apoptotic effect in cancer cell lines by Western blot; format: cell-based
Protocol: as §1
In Example 1, it was confirmed that STAT3 activity (p-STAT3) was inhibited in cancer cells when treated with the compound CG165 of the present disclosure. The effect of inhibiting the expression of STAT3 target proteins and the apoptotic effect due to the inhibition of STAT3 activity were confirmed using Western blot.

[8] = tested on: human foreskin fibroblasts HFF; assay: Cell viability (WST-1) in normal cells HFF; format: cell-based; details: 10 μM, 48 hours
STAT3 activity (p-STAT3) [9] = biological target: T1, STAT3 activity (p-STAT3); assay: STAT3 phosphorylation inhibition in lung cancer cell line HCC827 by Western blot; format: cell-based; set-up: endogenous in cells
Protocol: as §1, with “Subsequently, correction using GAPDH was performed using the MultiGauge program (Fuji Photo Film, Tokyo, Japan).” left out

STAT3 activity (p-STAT3) [10] = biological target: T1, STAT3 activity (p-STAT3); assay: STAT3 phosphorylation inhibition in breast cancer cell line MDA-MB-468 by Western blot; format: cell-based; set-up: endogenous in cells
Protocol: as §1, with “Subsequently, correction using GAPDH was performed using the MultiGauge program (Fuji Photo Film, Tokyo, Japan).” left out

[11] = tested on: breast cancer cell line MDA-MB-468; assay: Cell proliferation assay (WST-1) in breast cancer cell line MDA-MB-468; format: cell-based; details: 24 or 48 hours
Protocol: In Example 1, it was confirmed that STAT3 activity (p-STAT3) was inhibited by more than 50% in cancer cells when treated with the compound CG165 of the present disclosure. In order to confirm the effect of inhibiting STAT3 activity on inhibition of cancer cell growth, cell proliferation assay was performed using the breast cell line, a representative carcinoma.
Specifically, the breast cancer cell line MDA-MB-468 was treated with CG-165 according to concentrations for 24 or 48 hours, and then the degree of cell viability was measured using the WST-1 assay (Dojindo Laboratories, Kumamoto, Japan).

STAT3 activity (p-STAT3) [12] = biological target: T1, STAT3 activity (p-STAT3); assay: STAT3 phosphorylation inhibition in prostate cancer cell line DU-145 by Western blot; format: cell-based; set-up: endogenous in cells; host or cells: DU-145, MDA-MB-468, HCC827
Protocol: as §1
Next, the STAT3 phosphorylation inhibitory effect of the compound CG165 of the present disclosure in cancer cell lines was confirmed by Western blot.

[13] = Single oral dose toxicity in mice; format: in vivo; details: male mice; 100 mg/kg, 200 mg/kg, and 300 mg/kg
Protocol: In order to obtain information on the acute toxicity of the compound CG165 of the present disclosure whose anticancer effect has been verified in animal models, the test substance was administered orally once at 100 mg/kg, 200 mg/kg, and 300 mg/kg to male mice to determine mortality, general symptoms, weight change, and post-mortem over 7 days.
Specifically, 20 Athymic-NCr NCr-nu specific pathogen-free (SPF) 5-week-old nude mice supplied by KOATECH (Pyeongtaek-si, Gyeonggi-do) were used as animals. Subsequently, CG165 was prepared as administration solution at different concentrations by adding DMAC 10%+Tween80 10%+20% HPBCD 80% step by step, and was administered orally.
General symptoms and dead animals were observed every hour from 1 to 6 hours after the final administration on the day of administration, and once daily from the day after administration until the 7th day for observation of changes in general symptoms, toxic symptoms, and the presence of dead animals.
In order to observe changes in body weight, the body weight of all animals used in the test was measured before administration and on days 0, 1, 2, 4, and 7 after administration.
On the 7th day after administration, all animals were anesthetized using CO2 gas, laparotomized, and killed by exsanguination by cutting the abdominal artery and vein, and all internal organs were visually observed.

T2 sequence (P42227 whole entry): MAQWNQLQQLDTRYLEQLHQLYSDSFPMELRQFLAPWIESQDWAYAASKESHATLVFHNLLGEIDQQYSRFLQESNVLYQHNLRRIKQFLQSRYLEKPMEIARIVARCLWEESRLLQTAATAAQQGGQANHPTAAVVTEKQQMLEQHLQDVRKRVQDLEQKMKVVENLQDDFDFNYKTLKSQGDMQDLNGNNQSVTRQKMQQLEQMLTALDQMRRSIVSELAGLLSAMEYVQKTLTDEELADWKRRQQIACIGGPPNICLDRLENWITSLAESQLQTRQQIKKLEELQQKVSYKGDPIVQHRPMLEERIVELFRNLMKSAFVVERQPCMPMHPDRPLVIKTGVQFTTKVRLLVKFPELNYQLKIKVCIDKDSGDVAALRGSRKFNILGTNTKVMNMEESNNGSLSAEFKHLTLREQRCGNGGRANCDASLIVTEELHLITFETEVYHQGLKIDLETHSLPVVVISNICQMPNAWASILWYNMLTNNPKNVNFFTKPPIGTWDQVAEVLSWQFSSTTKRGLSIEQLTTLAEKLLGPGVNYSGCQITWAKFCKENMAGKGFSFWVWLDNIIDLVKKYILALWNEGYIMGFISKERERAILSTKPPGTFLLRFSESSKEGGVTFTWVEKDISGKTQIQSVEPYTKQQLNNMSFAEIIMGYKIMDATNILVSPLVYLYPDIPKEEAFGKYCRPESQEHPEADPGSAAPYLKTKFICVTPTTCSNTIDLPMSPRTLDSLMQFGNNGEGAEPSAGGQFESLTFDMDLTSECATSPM
T1 sequence (P40763 whole entry): as the sequence (P42227 whole entry) above, with D760E counted along it
T3 sequence (P40763 whole entry): as the sequence (P42227 whole entry) above, with D760E counted along it

Compound: C=C(C)C(=O)NC(=O)/C=C/c1ccccc1OCc1ccncc1 [CG155]
- inhibition of phosphorylation of STAT3, dependence on concentration [3]: concentration-dependent manner
- IC50 (STAT3 activity (p-STAT3) [2]): 5 µM
- inhibition of phosphorylation of STAT3, dependence on concentration [4]: concentration-dependent manner

Compound: C#CCOc1ccccc1/C=C/C(=O)NC(=O)C(=C)C [CG164]
- IC50 (STAT3 activity (p-STAT3) [2]): 3.5 µM

Compound: C#CCOc1ccccc1/C=C/C(=O)N(C)C(=O)C(=C)C [CG165]
- inhibition at 5 µM ([3]; 5 μM, IL-10 stimulated, read-out: inhibition of STAT3 activation): > 90%
- inhibition of phosphorylation of STAT3, dependence on concentration [3]: concentration-dependent manner
- inhibition of growth of cancer cells (cell viability, WST-1) [5]: inhibited the growth of cancer cells in a concentration-dependent manner
- change in body weight compared to the vehicle ([1]; 30 mg/kg oral): no decrease in body weight was observed
- decrease in tumor weight compared to the vehicle ([1]; 30 mg/kg oral, day 30, p<0.05): 43.3%
- change in body weight compared to the vehicle ([1]; 60 mg/kg oral): no decrease in body weight was observed
- decrease in tumor weight compared to the vehicle ([1]; 60 mg/kg oral, day 30, p<0.05): 64.3%
- tumor growth inhibition (tumor size) compared to the vehicle ([1]; 60 mg/kg oral, day 30, p<0.05): 63.3%
- tumor growth inhibition (tumor size) compared to the vehicle ([1]; P.O, 30 mg/kg, day 30, p<0.05): 45.6%
- IC50 (STAT3 activity (p-STAT3) [2]): 1.8 µM
- effect on the growth of normal cells (cell viability, WST-1) [6]: no significant effect
- caspase 3 activation [7]: activated
- decomposition of PARP protein (cell death biomarker) [7]: promoted
- expression of cyclin A, Mcl-1, and survivin (target proteins of STAT3) [7]: significantly inhibited
- effect on the growth of normal cells (cell viability, WST-1) [8]: no significant effect
- inhibition of STAT3 activity (p-STAT3), dependence on concentration (STAT3 activity (p-STAT3) [9]): concentration-dependent manner
- inhibition at 5 µM (STAT3 activity (p-STAT3) [9]; 5 μM): > 50%
- inhibition of STAT3 activity (p-STAT3), dependence on concentration (STAT3 activity (p-STAT3) [10]): concentration-dependent manner
- inhibition at 5 µM (STAT3 activity (p-STAT3) [10]; 5 μM): > 50%
- inhibition of phosphorylation of STAT3, dependence on concentration [4]: concentration-dependent manner
- inhibition of growth of breast cancer cells (cell viability, WST-1) [11]: inhibited the growth of breast cancer cells in a concentration-dependent manner
- inhibition of STAT3 activity (p-STAT3), dependence on concentration (STAT3 activity (p-STAT3) [12]): concentration-dependent manner
- inhibition of STAT3 activity (p-STAT3), dependence on time (STAT3 activity (p-STAT3) [12]): time-dependent manner
- inhibition at 2 µM (STAT3 activity (p-STAT3) [12]; 2 μM): > 50%
- toxicological changes upon single oral administration [13]: did not cause toxicological changes

Compound: C=C(C)C(=O)NC(=O)/C=C/c1ccccc1OCc1ccccc1 [CG187]
- IC50 (STAT3 activity (p-STAT3) [2]): 3.5 µM

Further lines, with some results ahead:

- IC50 (STAT3 activity (p-STAT3) [2]): 3.7 µM
Compound: C=C(C)C(=O)NC(=O)/C=C/c1ccccc1OC [CG126]
- decrease in tumor weight compared to the vehicle ([1]; 30 mg/kg intraperitoneal, day 25, p<0.06): 54.2%

- IC50 (STAT3 activity (p-STAT3) [2]): 8.1 µM
Compound: C=C(C)C(=O)NC(=O)/C=C/c1ccccc1C [CG127]

- IC50 (STAT3 activity (p-STAT3) [2]): 6.2 µM
Compound: C=C(C)C(=O)NC(=O)/C=C/c1ccccc1O [CG133]

- IC50 (STAT3 activity (p-STAT3) [2]): 2 µM
Compound: C=C(C)C(=O)NC(=O)/C=C/c1ccccc1Cl [CG168]

Reference: patent publication US20250082620A1, “NOVEL CINNAMAMIDE DERIVATIVES AND USE THEREOF” (KOREA RESEARCH INSTITUTE OF BIOSCIENCE AND BIOTECHNOLOGY, priority 2022, published 2025)
